Literature values, collected in US20180168955A1, “IODINE-CONTAINING ORAL CARE COMPOSITIONS” (priority 2016, published 2018).

II [iodine]
volume of alcohol in which one gram of iodine dissolves (solvent alcohol): 12.5 mL
volume of water in which one gram of iodine dissolves (solvent water): 2950 mL
